In patent US20080113938A1, “ACCELERATOR FOR MINERAL ABSORPTION AND USE THEREOF” (KABUSHIKI KAISHA HAYASHIBARA SEIBUTSU KAGAKU KENKYUJO, priority 2003, published 2008):

Assay: Remaining cyclic tetrasaccharide in contents of alimentary canal and excrement of rats
Type: in vivo, Wister rats
Settings: for Remaining percentage of cyclic tetrasaccharide in content of appendix / Remaining percentage of cyclic tetrasaccharide in content of intestinum ileum / Remaining percentage of cyclic tetrasaccharide in excrement: relative to chromium marker
Source text: Forty of Wister rats weighing 110 to 120 g (five-weeks aged male, commercialized by Charles River Japan Inc., Yokohama, Japan) were bred with a feed containing ingredients (%) shown in Table 1 for one week in order to be familiarized. The familiarized rats were randomly divided into four groups with ten rats each. Each group was experimentally bred for eight weeks with either a feed without cyclic tetrasaccharide shown in Table 1 (hereinafter, it is called as “basic feed”), or another feed of basic feed supplemented with 1%, 2% or 5% on a dry solid basis, of cyclic tetrasaccharide in a crystalline anhydrous powder form with a purity of 99.5%, prepared in the following Example A-3. These basic feed and three kinds of feeds with cyclic tetrasaccharide were prepared to contain 44.75% of the total amount of cyclic tetrasaccharide and corn starch in each feed. From one week before the end of the breeding test, in order to determine the metabolism of calcium, magnesium, iron, sodium, potassium and phosphorus (hereinafter, may be called “minerals” in all), rats in the all groups were fed with the four types of feeds supplemented with 0.5% of chromium oxide as a non-absorbed marker for the minerals. The rats were bred at 25° C. in a manner of freely allowing to take feeds and water under a condition of 12 hours regular interval between of light and shade. After completion of experimental breeding, all rats were individually weighed to calculate the average of weight and further calculate the rate of increased weight for each group.
Two days before the end of the breeding test, rats were placed into a gauge for measuring metabolism to collect their excrement in two days. The resulting excrement was subjected to the measurement of the contents of cyclic tetrasaccharide, each mineral, and chromium. After the breeding test, the rats were anatomized in an anesthetized condition to take out their alimentary canals including jejunum, intestinum ileum, appendix and colon/rectum. After the resulting alimentary canals were weighed, their contents were also weighed and subjected to the measurement of the amount of cyclic tetrasaccharide, minerals and chromium. The rats, which had been taken out their alimentary canals, were dislocated at their cervical vertebrae and taken out their femurs from right legs. The resulting femurs were subjected to the measurement of the amount of ashes, calcium, magnesium and phosphorus. The following(s) explain the methods of quantitative analysis of cyclic tetrasaccharide and the methods of measurement of minerals and chromium.
One gram of a feed was admixed with 5 ml of 80% ethanol heated at 85° C. under reflux for 15 minutes to extract saccharides. The resulting saccharide sample was subjected to TMS derivatization in a usual manner. Three microliters of the sample was applied to a gas chromatography (“GC-16™”, commercialized by Shimazu Corporation, Kyoto, Japan) equipped with OV-17 packed column (“2% Silicone, OV-17 Chromosorb W/AW DMSC 80-100 mesh, 3 mmID×2 m, SUS”, produced by GL Science Corporation). The inner column temperature was kept at 160° C. for two minutes, and heated up to 320° C. at a rate of 7.5° C./min. The amount of cyclic tetrasaccharide was quantified by using nitrogen gas as a carrier (35 ml/min). While, in order to quantify the amounts of the contents of jejunum, intestinum ileum, appendix, colon/rectum and excrement, 0.05 g of each sample was weighed in a micro tube for gas chromatography and dried in a desiccator with phosphorus pentoxide. The resulting samples were subjected to TMS derivatization in a usual manner and quantified by gas chromatography.
The remaining percentages (%) were calculated using the following numerical formula, based on the rate of the amount of cyclic tetrasaccharide to chromium in each feed and the rate of those in the contents or excrement in consideration of that chromium is never absorbed by living bodies; […]

[1] = 1% cyclic tetrasaccharide in feed
[2] = 2% cyclic tetrasaccharide in feed
[3] = 5% cyclic tetrasaccharide in feed
[4] = feed supplemented with 1%, 2% or 5% of cyclic tetrasaccharide

Q: For `OC[C@H]1O[C@@H]2OC[C@H]3O[C@H](O[C@@H]4[C@@H](O)[C@@H](OC[C@H]5O[C@H](O[C@H]([C@H]2O)[C@@H]1O)[C@H](O)[C@@H](O)[C@@H]5O)O[C@H](CO)[C@H]4O)[C@H](O)[C@@H](O)[C@@H]3O` [cyclic tetrasaccharide, cyclo{>6)-α-D-glucopyranosyl-(1>3)-α-D-glucopyranosyl-(1>6)-α-D-glucopyranosyl-(1>3)-α-D-glucopyranosyl-(1>}], which “Amount of cyclic tetrasaccharide in content of appendix” value (“Amount … of appendix” below) [1] is on record?
A: The value was 0.0 mg/g.

Q: And the “Amount of cyclic tetrasaccharide in content of intestinum ileum” value (from here on “Amount … of intestinum ileum”) [1]?
A: The value was 60.5 mg/g.

Q: And the “Amount of cyclic tetrasaccharide in excrement” value (shortened to “Amount … in excrement”) [1]?
A: Its value is 0.0 mg/g.

Q: What about the “Remaining percentage of cyclic tetrasaccharide in content of appendix” value (shortened to “Remaining percentage … of appendix”) [1] of the same molecule?
A: Its value is 0%.

Q: What about the “Remaining percentage of cyclic tetrasaccharide in content of intestinum ileum” value (from here on “Remaining percentage … of intestinum ileum”) [1] of the same molecule?
A: The value was 95%.

Q: What about the “Remaining percentage of cyclic tetrasaccharide in excrement” value (“Remaining percentage … in excrement” for short) [1] of the same molecule?
A: Its value is 0%.

Q: What about the “Amount … of appendix” value [2] of the same molecule?
A: The value was 0.0 mg/g.

Q: What about the “Amount … of intestinum ileum” value [2] of the same molecule?
A: The value was 184.1 mg/g.

Q: And the “Amount … in excrement” value [2]?
A: Its value is 0.0 mg/g.

Q: And the “Remaining percentage … of appendix” value [2]?
A: The value was 0%.

Q: And the “Remaining percentage … of intestinum ileum” value [2]?
A: The value was 95%.

Q: What about the “Remaining percentage … in excrement” value [2] of the same molecule?
A: The value was 0%.

Q: And the “Amount … of appendix” value [3]?
A: The value was 0.0 mg/g.

Q: And the “Amount … of intestinum ileum” value [3]?
A: Its value is 298.0 mg/g.

Q: What about the “Amount … in excrement” value [3] of the same molecule?
A: The value was 0.0 mg/g.

Q: And the “Remaining percentage … of appendix” value [3]?
A: Its value is 0%.

Q: What about the “Remaining percentage … of intestinum ileum” value [3] of the same molecule?
A: The value was 90%.

Q: And the “Remaining percentage … in excrement” value [3]?
A: Its value is 0%.

Q: What about the “cyclic tetrasaccharide in the appendix and excrement” value [4] of the same molecule?
A: The value was “not detected at all”.

Q: And the “cyclic tetrasaccharide remained up to intestinum ileum without digestion” value [4]?
A: The value was “at least 90%”.
